Measured values published in patent publication US9283243B2, “CD36 inhibition to control obesity and insulin sensitivity” (CORNELL UNIVERSITY CORNELL CENTER FOR TECHNOLOGY, …, priority 2010, dated 2016).
“Also recorded” adds a separate entry of the source. Each block holds one molecule with its values, some of them ahead of it. Square brackets hold non-standard residues; d marks the D form. Peptide text beside a SMILES is read from it. dTrp(2-Me) = Cc1[nH]c2ccccc2c1C[C@@H](N)C(=O)O

Columns and labels:
[1] = system: ApoE KO mouse macrophages; experiment: Foam cell assay / lipid accumulation in primary macrophages incubated with oxLDL; type: cell-based; details: 48 h, vs oxLDL alone
Procedure: FIG. 5. Effects of SAB on lipid accumulation in ApoE KO mouse macrophages. Primary macrophages were seeded in 4 chamber slides and then incubated with 20 μg/ml oxLDL and/or different concentrations of SAB for 48 h. (A-D) Lipids were stained with oil red O and examined by microscopy; representative images are shown. (A), vehicle only; (B), 25 μM SAB treatment; (C), 20 μg/ml oxLDL; (D), 20 μg/ml oxLDL+25 μM SAB. Scale bar, 50 μm; higher magnification micrographs of oil red O stains were shown in upper-right of each picture. (E-F), Quantification for foam cell assay in primary macrophage. White bar, macrophages incubated with vehicle only (no oxLDL or SAB); black bar, incubated with 20 μg/ml oxLDL; grey bars, incubated with 20 μg/ml oxLDL plus 10, 25 or 100 μM SAB (SAB concentration listed below each bar); (E), Degree of lipid accumulation measured as intensity of integrated optical density; (F), Foam cell average area compared to average area of control macrophages incubated with vehicle. Control (vehicle-treated) average individual macrophage cell size/ area was normalized as 1; macrophages treated with oxLDL show increased individual relative cell area resulting from lipid internalization (black bar); SAB treatment (grey bars) reduced lipid internalization and relative cell size/area. n=3-6 cells/group. **,***p<0.01, 0.001 compared with no oxLDL(0).
SAB reduces lipid accumulation in ApoE KO mouse macrophages. Primary macrophages were isolated from ApoE KO mice and incubated with oxidized low density lipoproteins (oxLDL) and/or different concentrations of SAB for 48 h, then stained for lipid accumulation. […] Thus, CD36 antagonists can prevent accumulation of fat and lipids in cells subject to lipid-rich environments.
SAB reduces lipid accumulation and foam cell formation. Primary macrophages cultured from ApoE KO mice show a low intensity of optical density (IOD) commensurate with small cellular area (FIGS. 5E and 5F, white bar). […]

[2] = system: hyperlipidemic ApoE KO (AKO) mice; experiment: Chronic SAB treatment of ApoE KO mice fed a high fat diet for 8 weeks: body weight, fat, cholesterol, liver and vessel lipid; type: in vivo, mouse; details: for average visceral fat weight: p<0.001
Source text: (§1) FIG. 1A-1I. In vivo effect of chronic SAB treatment on physiological responses. (A), Body weight changes in ApoE KO mice fed a high fat diet for 8 weeks in vehicle (Veh)- and salvianolic acid (SAB)-treated mice. (B), Pictures were taken at the end of 8 weeks of high fat diet. […] (C), Fasting blood glucose levels. (D), Glucose tolerance test. (E), Area under curve (AUC). (F), CD36 mRNA levels in peritoneal macrophages and spleen from vehicle and SAB treated mice. (G), Measurement of lipid content from blood vessels. Lipid extraction and determination was performed using published methods (Kim et al., 2008). (H), Fold increases of plasma cholesterol levels 4 and 8 weeks after high fat diet. (I), Oil red O staining in the liver of vehicle and SAB treated mice. […] Number in parentheses indicates number of animals for the measurements.
FIG. 2A-2B. Visceral fat weight in high fat fed ApoE KO mice treated with SAB (100 mg/kg) for 8 weeks. 100 mg/kg SAB or vehicle (veh) was injected every other day by subcutaneous injection. n=8-10/group. […] (B), SAB reduced visceral fat weight from average=81 mg/animal to average=32 mg/animal. ***, p<0.001.
Chronic SAB treatment in hyperlipidemic ApoE KO (AKO) mice reduces weight gain and visceral fat accumulation. […] Feeding a high fat diet to the ApoE KO mice for 8 weeks increases plasma cholesterol levels approximately 5 fold (Kim et al., 2008). Six week old male ApoE KO (HL AKO) mice were fed a high fat diet for 8 weeks with or without SAB (100 mg/kg, subcutaneously every other day). […] The difference in weight between the groups was apparent by the 3rd week of treatment (FIG. 1A). […] Thus, SAB reduces body weight and fat accumulation, particularly visceral/abdominal fat accumulation and liver fat deposits, and also lowers plasma cholesterol.
Visceral fat weight in high fat fed ApoE KO mice treated with either vehicle or SAB (100 mg/kg) for 8 weeks. 100 mg/kg SAB or vehicle (veh) was injected every other day by subcutaneous injection. n=8-10 mice/group, ***, p<0.001. […] SAB reduced visceral fat weight by 60% (32 mg average visceral fat weight in SAB treated mice versus 81 mg average visceral fat weight in controls; FIG. 2B). This provides further evidence that CD36 antagonists can reduce fat accumulation, particularly visceral fat accumulation.

CD36 [3] = molecular target: T1, CD36 (Homo sapiens, UniProt P16671); experiment: High throughput screen for CD36 antagonists
T1 sequence (P16671 whole entry): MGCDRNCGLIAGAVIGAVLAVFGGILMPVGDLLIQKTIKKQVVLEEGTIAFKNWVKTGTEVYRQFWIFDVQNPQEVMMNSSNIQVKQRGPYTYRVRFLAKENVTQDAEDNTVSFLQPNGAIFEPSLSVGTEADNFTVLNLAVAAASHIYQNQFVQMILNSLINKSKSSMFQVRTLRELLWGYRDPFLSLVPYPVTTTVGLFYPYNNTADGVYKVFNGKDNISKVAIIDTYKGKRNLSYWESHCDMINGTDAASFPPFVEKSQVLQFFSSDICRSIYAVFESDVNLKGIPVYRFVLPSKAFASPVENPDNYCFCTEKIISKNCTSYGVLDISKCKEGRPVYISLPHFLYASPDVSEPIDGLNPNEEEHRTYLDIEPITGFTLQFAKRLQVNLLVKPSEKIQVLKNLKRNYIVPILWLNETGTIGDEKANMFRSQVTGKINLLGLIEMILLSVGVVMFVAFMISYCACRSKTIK
Source text: Candidate modulator compounds from libraries of synthetic or natural compounds can be screened by methods known in the art (see Chinese patent number ZL200510072269.1, Publication No: CN1868546, and Chinese patent application number 200910147634.9, each hereby incorporated in its entirety by reference). Synthetic compound libraries are commercially available from a number of companies including Maybridge Chemical Co. (Trevillet, Cornwall, UK), Comgenex (Princeton, N.J.), Brandon Associates (Merrimack, N.H.), and Microsource (New Milford, Conn.). Combinatorial libraries are available or can be prepared according to known synthetic techniques. Alternatively, libraries of natural compounds in the form of bacterial, fungal, plant and animal extracts are available from e.g., Pan Laboratories (Bothell, Wash.) or MycoSearch (NC), or are readily producible by methods well known in the art. Additionally, natural and synthetically produced libraries and compounds can be further modified through conventional chemical and biochemical techniques.
The use of high throughput screening has allowed the identification of compounds that potently antagonize CD36 in vitro. Following isolation of CD36 antagonists by in vitro testing, experiments can be conducted to test the efficacy in vivo. […]

[4] = system: hyperlipidemic ApoE KO (AKO) mice; experiment: Fasting blood glucose and glucose tolerance test in SAB-treated high fat fed ApoE KO mice; type: in vivo, mouse
Source text: as §1
SAB treatment improves insulin sensitivity. Fasting blood glucose levels were similar in SAB-treated and control mice at zero, four, and eight weeks of treatment (FIG. 1C). However, when mice were challenged with glucose tolerance test (an intraperitoneal injection of […]), blood glucose was cleared much faster in SAB-treated mice (45 minutes after challenge, initial blood glucose spike reduced by 75%) relative to vehicle-treated mice (45 minutes after challenge, initial spike in blood glucose reduced by less than 10%; FIG. 1D).

CD36 mRNA [5] = experiment: CD36 gene expression in peritoneal macrophages and spleen from vehicle and SAB-treated mice; type: in vivo, mouse; details: SAB-treated vs vehicle mice
Source text: as §1
SAB treatment reduces CD36 expression in peritoneal macrophages. Since CD36 is expressed in monocytes and macrophages, CD36 gene expression was compared in peritoneal macrophages and the spleen, a peripheral organ that serves as a reservoir of monocytes, from vehicle and SAB-treated mice. CD36 mRNA levels were reduced in both peritoneal and spleen macrophages of SAB-treated mice (FIG. 1F). […]

CD36 [6] = molecular target: T1, CD36; details: Xu, Y et al., Anal Biochem 2010; cited from earlier work
CD36 [7] = molecular target: T1, CD36; details: Demers et al. 2004, cited from earlier work
CD36 [8] = details: literature, cited from earlier work
CD36 mRNA [9] = experiment: CD36 siRNA transfection in C8-D1A cells, CD36 mRNA levels; type: cell-based; details: 20 nM siRNA, 24h after transfection, N=4, vs negative control
Procedure: FIG. 4. Efficacy of CD36 siRNA. 20 nM siRNA either singly or in combination were transfected in C8-D1A cells. CD36 mRNA levels were measured 24h later. N=4. Negative controls were adjusted to the amount of siRNA. **p<0.01, ***p<0.001 vs correponding control.
CD36 was inhibited using an RNAi technique. 20 nM siRNA either singly or in combination were transfected in C8-D1A cells. CD36 mRNA levels were measured 24h later. N=4. Negative controls were adjusted to the amount of siRNA. **p<0.01, ***p<0.001 vs correponding control.

[10] = 20 μg/ml oxLDL plus 10, 25 or 100 μM SAB
[11] = SAB 100 mg/kg s.c. every other day, high fat diet 8 weeks

CD36 antagonist identification in high throughput screen (CD36 [3]): identified as a CD36 antagonist
Molecule: O=C(/C=C/c1ccc(O)c2c1[C@H](C(=O)O[C@H](Cc1ccc(O)c(O)c1)C(=O)O)C(c1ccc(O)c(O)c1)O2)O[C@@H](Cc1ccc(O)c(O)c1)C(=O)O (stereo in doubt) [SAB, salvianolic acid B]
lipid accumulation (oil red O staining) ([1]; 20 μg/ml oxLDL + 25 μM SAB): significantly reduced lipid accumulation
lipid accumulation as intensity of optical density (IOD) [1, 10]: significantly reduced
relative cell area (foam cell average area) [1, 10]: significantly reduced
reduction of visceral fat weight ([2]; SAB 100 mg/kg s.c. every other day, 8 weeks, vs controls): 60%
average visceral fat weight ([2]; SAB 100 mg/kg s.c. every other day, 8 weeks, controls 81 mg): 32 mg
average visceral fat weight ([2]; SAB 100 mg/kg s.c. every other day, 8 weeks, vehicle 81 mg/animal): 32 mg/animal
fat deposition in the liver (Oil red O staining) [2, 11]: profoundly reduced; also recorded: significantly reduced
leaner compared to vehicle treated ApoE KO mice [2, 11]: 17%
abdominal fat accumulation ([2]; SAB 100 mg/kg s.c. every other day, high fat diet 8 weeks, physical inspection): Reduction in abdominal fat was evident; also recorded: substantially reduced; also recorded: either minimal or absent
plasma cholesterol levels ([2]; SAB 100 mg/kg s.c. every other day, high fat diet, 4 and 8 weeks): significantly reduced
rate of weight gain (weekly body weight) ([2]; SAB 100 mg/kg subcutaneously every other day, high fat diet 8 weeks, vs vehicle): significantly reduced
lipid content in the aorta and extended vessels ([2]; preliminary analysis, SAB-treated vs vehicle mice): trend toward lipid content reduction
reduction of initial blood glucose spike in glucose tolerance test ([4]; 45 minutes after challenge, intraperitoneal injection of 1.5 mg glucose/kg, vehicle less than 10%): 75%
AUCglucose (glucose area under the curve) in glucose tolerance test ([4]; SAB-treated vs vehicle-treated mice): significant reduction
fasting blood glucose levels vs control mice ([4]; zero, four, and eight weeks of treatment): similar
CD36 mRNA levels in peritoneal macrophages (CD36 mRNA [5]): reduced
CD36 mRNA levels in spleen macrophages (CD36 mRNA [5]): reduced

Molecule: O=C(/C=C/c1ccccc1)c1c[nH]c2ccccc12 [3-cinnamoyl indole]
CD36 antagonist identification through high-throughput screening (CD36 [6]): identified

Molecule: CCCCCc1c2[n+](cc3c(OC)c(OC)ccc13)CCc1cc3c(cc1-2)OCO3 [13 pentyl berberine]
CD36 antagonist identification through high-throughput screening (CD36 [6]): identified

Molecule: Cc1[nH]c2ccccc2c1C[C@@H](NC(=O)[C@@H](N)Cc1cnc[nH]1)C(=O)N[C@@H](C)C(=O)N[C@@H](Cc1c[nH]c2ccccc12)C(=O)N[C@H](Cc1ccccc1)C(=O)N[C@@H](CCCCN)C(N)=O [hexarelin] (H-H[dTrp(2-Me)]AW[dF]K-NH2)
binding to CD36 receptors (CD36 [7]): binds
CD36-mediated uptake of oxLDLs (CD36 [7]; binding site competition): blocks

Molecule: Cc1c(C)c2c(c(C)c1O)CC[C@@](C)(CCC[C@H](C)CCC[C@H](C)CCCC(C)C)O2 [α-tocopherol]
uptake of oxLDLs into macrophages (CD36 [8]): can reduce
expression of CD36 (CD36 [8]; macrophages): can reduce

Molecule: MSS202775: CD36 siRNA from exon9, SEQ ID NO: 1 and 2 (chain 1 UAGCUUGGCCAAUAGGACAAAUUCC; chain 2 GGAAUUUGUCCUAUUGGCCAAGCUA; chemistry not given here)
CD36 gene expression (CD36 mRNA levels) (CD36 mRNA [9]): reduced CD36 gene expression significantly
CD36 gene expression (CD36 mRNA levels) (CD36 mRNA [9]; listed as siRNA 75): most effective

Molecule: MSS202776: CD36 siRNA, exon7, SEQ ID NO: 3 and 4 (chain 1 CUUGUUUGGAACACAGAAGACUUGG; chain 2 CCAAGUCUUCUAUGUUCCAAACAAG; chemistry not given here)
CD36 gene expression (CD36 mRNA levels) (CD36 mRNA [9]): reduced CD36 gene expression significantly

Molecule: MSS202777: CD36 siRNA, exon11, SEQ ID NO: 5 and 6 (chain 1 ACACCAUAAGAUGUACAGUUAUUGG; chain 2 CCAAUAACUGUACAUCUUAUGGUGU; chemistry not given here)
CD36 gene expression (CD36 mRNA levels) (CD36 mRNA [9]): reduced CD36 gene expression significantly
